The subject of data set [1] is Enterococcus faecium MDR Van A ATCC 51559. Kind of data set: MIC assay, E. faecium MDR Van A ATCC 51559. In kind it is cell-based. The note with it: 24 h incubation, visual reading. In outline: (§1)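 Twofold broth microdilution in Mueller Hinton broth; compounds tested from 8 μg/ml to 0.003 μg/ml. Mid-log cultures were inoculated at 5×10e5 CFU/mL and incubated 24 h at 37° C. MIC was the lowest concentration with no visible growth.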

Data set [2] has as its system Streptococcus pneumoniae MDR ATCC 700677. Kind of data set: MIC assay, S. pneumoniae MDR ATCC 700677. The note with it: 24 h incubation, visual reading. The data set is classed as cell-based. In outline:
as §1

The subject of data set [3] is Staphylococcus aureus MRSA ATCC 43300. Kind of data set: MIC assay, S. aureus MRSA ATCC 43300. In kind it is cell-based. The note with it: 24 h incubation, visual reading. In outline: as §1
Data set [4] can be described thus: Stability of compounds in human plasma. As for the experimental part: Briefly test compounds (20 μM) were prepared from a 1 mM stock solution. The human plasma sample (200 μl) was diluted with 160 μl phosphate-buffer saline (PBS, pH 7.4) to a concentration of 50% v/v before use. Solutions were then vortexed and placed on a 37° C. shaker and shaken gently for 10 minutes. 40 μl of the test compounds were then added to the plasma sample and vortexed. For the reaction time t=0 hour, 50 μl of sample was immediately transferred into an eppendorf tube and quenched with 150 μl cold acetonitrile. The remaining plasma solution was incubated and shaken at 37° C. Other samples were collected at time points of 0, 1, 3, 6 and 24 hours whereby 50 μl aliquots were removed and quenched with 150 μl cold acetonitrile. All samples were placed in a 4° C. fridge for 10 minutes then centrifuged at 3000 rpm for 15 minutes. The supernatant (100 μl) was transferred to a glass vial insert for LCMS analysis. The percentage of test compounds remaining at the individual time points relative to sample at time point 0 hour were reported.
Plasma: Human Plasma (Pooled Normal Human Plasma Heparin Anticoagulant 50 mL (IPLA-2 N-04 lot IR09-1001, originally from Innovative Research and imported by BioCore).
All compounds in 100% water (40 μL in 400 μL assay volume equivalent […])
Compounds: 40 μL of the vancomycin derivative solution was added to 160 μL of PBS (pH 7.4) respectively in an Eppendorf tube. 600 μL of cold acetonitrile was added, the tube vortexed and transferred to a glass vial for LC-MS analysis.
Eucatropine: 200 μL of plasma and 190 μL of buffer were vortexed, shaken at 37° C. for 10 minutes. 10 μL of eucatropine solution was then added and the tube vortexed. A 50 μL aliquot was immediately transferred to an Eppendorf tube, 150 μL of cold acetonitrile added and the tube transferred to a 4° C. fridge for 10 minutes. The remaining plasma solution was then transferred to the incubator and shaken at 37° C. The tube was retrieved from the fridge, centrifuged at 3000 rpm for 15 min and 100 μL of supernatant transferred to a glass vial insert for LC-MS analysis. 50 μL aliquots were processed as above at 1, […], 3, 6 and 24 hours and 5 μL was injected into triple quad MS system for analysis. Vancomycin derivatives: 200 μL of plasma and 160 μL of buffer were vortexed and shaken at 37° C. for 10 minutes. 40 μL of compound was then added and the sample was processed as above.

[5] abbreviates: 0 h (reference time point), 50% human plasma/PBS pH 7.4, 37° C.
Where [6] appears, read: 1 h, 50% human plasma/PBS pH 7.4, 37° C.
The mark [7] stands for this setting: 3 h, 50% human plasma/PBS pH 7.4, 37° C.
[8] abbreviates: 6 h, 50% human plasma/PBS pH 7.4, 37° C.
[9] abbreviates: 24 h, 50% human plasma/PBS pH 7.4, 37° C.

For `CCCCCCCCCCCCCC(=O)N[C@@H](CCCCN)C(=O)N[C@@H](CCCCN)C(=O)N[C@@H](CCCCN)C(=O)N[C@@H](CCCCNC(=O)[C@H]1NC(=O)[C@H]2NC(=O)[C@H](NC(=O)[C@@H]3NC(=O)[C@H](CC(N)=O)NC(=O)[C@H](NC(=O)[C@@H](CC(C)C)NC)[C@H](O)c4ccc(c(Cl)c4)Oc4cc3cc(c4O[C@@H]3O[C@H](CO)[C@@H](O)[C@H](O)[C@H]3O[C@H]3C[C@](C)(N)[C@H](O)[C@H](C)O3)Oc3ccc(cc3Cl)[C@H]2O)c2ccc(O)c(c2)-c2c(O)cc(O)cc21)C(=O)O` [MCC_000223, nC13CO-KKK-K(Vanc)-OH], the “Minimum Inhibitory Concentration (MIC) E. faecium ATCC51559” value in data set [1] is reported as “xxx (xxx = 0.1-<1)”. Moreover, the “Minimum Inhibitory Concentration (MIC) S. pneumoniae ATCC 700677” value in data set [2] is listed as “xxxxx (xxxxx = <0.01)”. In data set [3], the “Minimum Inhibitory Concentration (MIC) Staph. aureus ATCC43300” value is reported as “xxxxx (xxxxx = <0.01)”. Further, the “% compound remaining after incubation in 50% human plasma” value (shortened to “% compound remaining after incubation”) in data set [4] (setting [5]) is 100%; in data set [4] (setting [6]) it was 174%; in data set [4] (setting [7]) it was 164%; in data set [4] (setting [8]), 170%; in data set [4] (setting [9]), 139%.
For “nC13CO-KKK-C(SS-nEt-NH-Vanc)-OH [MCC_000535, reference compound]”, the “% compound remaining after incubation” value is given as 100% in data set [4] (human, plasma, 0 h, pH 7.4); 77% in data set [4] (human, plasma, 1 h, pH 7.4); 64% in data set [4] (human, plasma, 3 h, pH 7.4); 51% in data set [4] (human, plasma, 6 h, pH 7.4); 3% in data set [4] (human, plasma, 24 h, pH 7.4).
Take `CCCCCCCCCCC(=O)NC(CCCCN(C)C)C(=O)NCCCNC(=O)C1NC(=O)C2NC(=O)C(NC(=O)C3NC(=O)C(CC(N)=O)NC(=O)C(NC(=O)C(CC(C)C)NC)C(O)c4ccc(c(Cl)c4)Oc4cc3cc(c4OC3OC(CO)C(O)C(O)C3OC3CC(C)(N)C(O)C(C)O3)Oc3ccc(cc3Cl)C2O)c2ccc(O)c(c2)-c2c(O)cc(O)cc21` (stereo not drawn) [MCC_007340]: the “Minimum Inhibitory Concentration (MIC) E. faecium ATCC51559” value in data set [1] is on record as “xx (xx = 1-4)”. Further, the “Minimum Inhibitory Concentration (MIC) S. pneumoniae ATCC 700677” value in data set [2] is recorded as “xxxx (xxxx = 0.01-<0.1)”. Moreover, the “Minimum Inhibitory Concentration (MIC) Staph. aureus ATCC43300” value in data set [3] is listed as “xxxxx (xxxxx = <0.01)”.
The like results for `CNC(=O)[C@H](CCCCNC(=O)[C@H]1NC(=O)[C@H]2NC(=O)[C@H](NC(=O)[C@@H]3NC(=O)[C@H](CC(N)=O)NC(=O)[C@H](NC(=O)[C@@H](CC(C)C)NC)[C@H](O)c4ccc(c(Cl)c4)Oc4cc3cc(c4O[C@@H]3O[C@H](CO)[C@@H](O)[C@H](O)[C@H]3O[C@H]3C[C@](C)(N)[C@H](O)[C@H](C)O3)Oc3ccc(cc3Cl)[C@H]2O)c2ccc(O)c(c2)-c2c(O)cc(O)cc21)NC(=O)[C@H](CCCCN)NC(=O)[C@H](CCCCN)NC(=O)CNC(=O)c1ccc(Oc2ccccc2)cc1` [MCC_000647] were, in that order, “x (x = >4)”, “xxx (xxx = 0.1-<1)” and “xxx (xxx = 0.1-<1)”.
The like results for `CCCCCCCCCCCC(=O)N[C@@H](CCCCN)C(=O)N[C@@H](CCCCNC(=O)[C@H]1NC(=O)[C@H]2NC(=O)[C@H](NC(=O)[C@@H]3NC(=O)[C@H](CC(N)=O)NC(=O)[C@H](NC(=O)[C@@H](CC(C)C)NC)[C@H](O)c4ccc(c(Cl)c4)Oc4cc3cc(c4O[C@@H]3O[C@H](CO)[C@@H](O)[C@H](O)[C@H]3O[C@H]3C[C@](C)(N)[C@H](O)[C@H](C)O3)Oc3ccc(cc3Cl)[C@H]2O)c2ccc(O)c(c2)-c2c(O)cc(O)cc21)C(=O)O` [MCC_005224] were, in that order, “xx (xx = 1-4)”, “xxxx (xxxx = 0.01-<0.1)” and “xxxx (xxxx = 0.01-<0.1)”.
The like results for `CCCCCCCCCCCCCC(=O)N[C@@H](CCCCN)C(=O)N[C@@H](CCCCN)C(=O)NCC(=O)NCCCNC(=O)[C@H]1NC(=O)[C@H]2NC(=O)[C@H](NC(=O)[C@@H]3NC(=O)[C@H](CC(N)=O)NC(=O)[C@H](NC(=O)[C@@H](CC(C)C)NC)[C@H](O)c4ccc(c(Cl)c4)Oc4cc3cc(c4O[C@@H]3O[C@H](CO)[C@@H](O)[C@H](O)[C@H]3O[C@H]3C[C@](C)(N)[C@H](O)[C@H](C)O3)Oc3ccc(cc3Cl)[C@H]2O)c2ccc(O)c(c2)-c2c(O)cc(O)cc21` [MCC_000784] were, in that order, “xxxx (xxxx = 0.01-<0.1)”, “xxxxx (xxxxx = <0.01)” and “xxxxx (xxxxx = <0.01)”.
Turning to `CNC(=O)C(CCCCNC(=O)C1NC(=O)C2NC(=O)C(NC(=O)C3NC(=O)C(CC(N)=O)NC(=O)C(NC(=O)C(CC(C)C)NC)C(O)c4ccc(c(Cl)c4)Oc4cc3cc(c4OC3OC(CO)C(O)C(O)C3OC3CC(C)(N)C(O)C(C)O3)Oc3ccc(cc3Cl)C2O)c2ccc(O)c(c2)-c2c(O)cc(O)cc21)NC(=O)C(CCCCN)NC(=O)C(CCCCN)NC(=O)CCCCCCCCCCCc1ccccc1` (stereo not drawn) [MCC_000511], in data set [1], the “Minimum Inhibitory Concentration (MIC) E. faecium ATCC51559” value was “xxx (xxx = 0.1-<1)”. Further, the “Minimum Inhibitory Concentration (MIC) S. pneumoniae ATCC 700677” value in data set [2] is “xxxxx (xxxxx = <0.01)”. Further, the “Minimum Inhibitory Concentration (MIC) Staph. aureus ATCC43300” value in data set [3] is recorded as “xxxxx (xxxxx = <0.01)”.
`CCCCCCCC(=O)NC(CCCCN)C(=O)NC(CCCCN)C(=O)NC(CCCCNC(=O)C1NC(=O)C2NC(=O)C(NC(=O)C3NC(=O)C(CC(N)=O)NC(=O)C(NC(=O)C(CC(C)C)NC)C(O)c4ccc(c(Cl)c4)Oc4cc3cc(c4OC3OC(CO)C(O)C(O)C3OC3CC(C)(N)C(O)C(C)O3)Oc3ccc(cc3Cl)C2O)c2ccc(O)c(c2)-c2c(O)cc(O)cc21)C(=O)NC` (stereo not drawn) [MCC_000489]: the “Minimum Inhibitory Concentration (MIC) E. faecium ATCC51559” value in data set [1] is given as “x (x = >4)”. In addition, in data set [2], the “Minimum Inhibitory Concentration (MIC) S. pneumoniae ATCC 700677” value is recorded as “xxx (xxx = 0.1-<1)”. Further, in data set [3], the “Minimum Inhibitory Concentration (MIC) Staph. aureus ATCC43300” value was “xx (xx = 1-4)”.
`CCCCCCCCCCC(=O)NC(CCCNC(=N)N)C(=O)NCCCNC(=O)C1NC(=O)C2NC(=O)C(NC(=O)C3NC(=O)C(CC(N)=O)NC(=O)C(NC(=O)C(CC(C)C)NC)C(O)c4ccc(c(Cl)c4)Oc4cc3cc(c4OC3OC(CO)C(O)C(O)C3OC3CC(C)(N)C(O)C(C)O3)Oc3ccc(cc3Cl)C2O)c2ccc(O)c(c2)-c2c(O)cc(O)cc21` (stereo not drawn) [MCC_007337]: the “Minimum Inhibitory Concentration (MIC) E. faecium ATCC51559” value in data set [1] is recorded as “xx (xx = 1-4)”. Moreover, the “Minimum Inhibitory Concentration (MIC) S. pneumoniae ATCC 700677” value in data set [2] is listed as “xxxxx (xxxxx = <0.01)”. The “Minimum Inhibitory Concentration (MIC) Staph. aureus ATCC43300” value in data set [3] is reported as “xxxxx (xxxxx = <0.01)”.
On to `CCCCCCCCCCC(=O)NCC(=O)N[C@@H](CO)C(=O)N[C@@H](CCCCN)C(=O)N[C@@H](CCCCN)C(=O)N[C@@H](CCCCN)C(=O)N[C@@H](CCCCNC(=O)[C@H]1NC(=O)[C@H]2NC(=O)[C@H](NC(=O)[C@@H]3NC(=O)[C@H](CC(N)=O)NC(=O)[C@H](NC(=O)[C@@H](CC(C)C)NC)[C@H](O)c4ccc(c(Cl)c4)Oc4cc3cc(c4O[C@@H]3O[C@H](CO)[C@@H](O)[C@H](O)[C@H]3O[C@H]3C[C@](C)(N)[C@H](O)[C@H](C)O3)Oc3ccc(cc3Cl)[C@H]2O)c2ccc(O)c(c2)-c2c(O)cc(O)cc21)C(=O)O` [MCC_000082, nC10CO-GSKKK-K(Vanc)-OH], for which the “% compound remaining after incubation” value stood at 100% in data set [4] (setting [5]); 136% in data set [4] (setting [6]); 252% in data set [4] (setting [7]); 241% in data set [4] (setting [8]); 73% in data set [4] (setting [9]).

(Values after patent US10947271B2, “Antibacterial agents” (THE UNIVERSITY OF QUEENSLAND, priority 2014, dated 2021).)
